Results as given in US8206898B2, “RNA exit channel: target and method for inhibition of bacterial RNA polymerase” (priority 2003, dated 2012).

How the values were obtained:
[1] = test system: Escherichia coli hyper-permeable strain D21f2/TolC; experiment: MIC of Lpm for Escherichia coli Lpm^R isolates from saturation mutagenesis and selection; assay type: cell-based
Method: To define systematically determinants for function of Lpm, saturation mutagenesis of Escherichia coli rpoB and rpoC was performed, and Lpm^R mutants were isolated and characterized (targeting codons or residues located within 20 Å of Bacillus subtilis Lpm^R sites in the three-dimensional structure of RNAP; methods as in Mukhopadhyay, et al., (2004) Mol. Cell, in press, except that selection was performed in hyper-permeable strain D21f2/TolC (rfa tolC; Fralick et al., (1994) J. Bacteriol. 176, 6404-6406)). 24 independent single-substitution Lpm^r mutants were identified (Table 2). The substitution sites define an approximately 20 Å×20 Å continuous surface, located within the RNA-exit-channel, spanning the target, and containing each residue of the target (i.e., residues 1251, 1256, and 1321 of β and residues 248-249 of β′; Table 2). Substitution sites corresponding to substitution sites in the Bacillus subtilis Lpm^R mutants described above were among those identified (i.e., residue 1256 of β and residues 249 and 337 of β′; Tables 1, 2).

[2] = target: RNAP-promoter open complex (RNAP holoenzyme, lacUV5-12 DNA fragment) (Escherichia coli, UniProt P0A8T7+P0A8V2); experiment: Electrophoretic mobility-shift analysis of open-complex formation; assay type: biochemical; conditions: 0-100 μm Lpm, added to RNAP before addition of the promoter DNA; FIG. 3
Method: To determine whether Lpm inhibits steps in transcription up to and including formation of the RNAP-promoter open complex, electrophoretic mobility-shift experiments were performed. The analysis of open-complex formation was performed as follows: reaction mixtures (20 μl) contained 100 nM RNAP holoenzyme, 20 nM fluorochrome-labeled DNA fragment lacUV5-12 (Cy5, +26) (Mukhopadhyay et al., 2001), and 0-100 μm Lpm in TB (50 mM Tris-HCl (pH 8.0), 100 mM KCl, 10 mM MgCl2, 1 mM dithiothreitol, 10 μg/ml bovine serum albumin, and 5% glycerol), added before or after the DNA. Following 15 min at 37° C., 0.5 μl 1 mg/ml heparin was added (to disrupt non-specific complexes), and, following a further 2 minutes at 37° C., reaction mixtures were applied to 5% polyacrylamide slab gels (30:1 acrylamide/bisacrylamide; 6×9×0.1 cm) and electrophoresed in 90 mM Tris-borate (pH 8.0) and 0.2 mM EDTA (20 V/cm; 30 min at 37° C.) and analyzed using a fluorescence scanner (Storm 860; Molecular Dynamics).

[3] = test system: bacterial RNAP; conditions: literature; cited from earlier work
[4] = test system: Gram-positive bacteria and Gram-negative bacteria; conditions: literature (Coronelli et al., 1975); cited from earlier work

Chain of RNAP-promoter open complex (RNAP holoenzyme, lacUV5-12 DNA fragment) (P0A7Z4 whole entry, the tested form may be a part): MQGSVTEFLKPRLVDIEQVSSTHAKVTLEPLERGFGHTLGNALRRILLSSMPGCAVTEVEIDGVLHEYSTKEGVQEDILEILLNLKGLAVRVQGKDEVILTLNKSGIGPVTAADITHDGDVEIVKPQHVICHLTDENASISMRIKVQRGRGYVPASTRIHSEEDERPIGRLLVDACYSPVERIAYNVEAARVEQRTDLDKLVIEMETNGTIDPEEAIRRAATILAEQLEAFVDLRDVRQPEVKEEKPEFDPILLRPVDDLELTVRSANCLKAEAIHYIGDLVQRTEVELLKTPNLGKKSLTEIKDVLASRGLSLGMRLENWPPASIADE
Chain of RNAP-promoter open complex (RNAP holoenzyme, lacUV5-12 DNA fragment) (P0A8V2 whole entry, the tested form may be a part): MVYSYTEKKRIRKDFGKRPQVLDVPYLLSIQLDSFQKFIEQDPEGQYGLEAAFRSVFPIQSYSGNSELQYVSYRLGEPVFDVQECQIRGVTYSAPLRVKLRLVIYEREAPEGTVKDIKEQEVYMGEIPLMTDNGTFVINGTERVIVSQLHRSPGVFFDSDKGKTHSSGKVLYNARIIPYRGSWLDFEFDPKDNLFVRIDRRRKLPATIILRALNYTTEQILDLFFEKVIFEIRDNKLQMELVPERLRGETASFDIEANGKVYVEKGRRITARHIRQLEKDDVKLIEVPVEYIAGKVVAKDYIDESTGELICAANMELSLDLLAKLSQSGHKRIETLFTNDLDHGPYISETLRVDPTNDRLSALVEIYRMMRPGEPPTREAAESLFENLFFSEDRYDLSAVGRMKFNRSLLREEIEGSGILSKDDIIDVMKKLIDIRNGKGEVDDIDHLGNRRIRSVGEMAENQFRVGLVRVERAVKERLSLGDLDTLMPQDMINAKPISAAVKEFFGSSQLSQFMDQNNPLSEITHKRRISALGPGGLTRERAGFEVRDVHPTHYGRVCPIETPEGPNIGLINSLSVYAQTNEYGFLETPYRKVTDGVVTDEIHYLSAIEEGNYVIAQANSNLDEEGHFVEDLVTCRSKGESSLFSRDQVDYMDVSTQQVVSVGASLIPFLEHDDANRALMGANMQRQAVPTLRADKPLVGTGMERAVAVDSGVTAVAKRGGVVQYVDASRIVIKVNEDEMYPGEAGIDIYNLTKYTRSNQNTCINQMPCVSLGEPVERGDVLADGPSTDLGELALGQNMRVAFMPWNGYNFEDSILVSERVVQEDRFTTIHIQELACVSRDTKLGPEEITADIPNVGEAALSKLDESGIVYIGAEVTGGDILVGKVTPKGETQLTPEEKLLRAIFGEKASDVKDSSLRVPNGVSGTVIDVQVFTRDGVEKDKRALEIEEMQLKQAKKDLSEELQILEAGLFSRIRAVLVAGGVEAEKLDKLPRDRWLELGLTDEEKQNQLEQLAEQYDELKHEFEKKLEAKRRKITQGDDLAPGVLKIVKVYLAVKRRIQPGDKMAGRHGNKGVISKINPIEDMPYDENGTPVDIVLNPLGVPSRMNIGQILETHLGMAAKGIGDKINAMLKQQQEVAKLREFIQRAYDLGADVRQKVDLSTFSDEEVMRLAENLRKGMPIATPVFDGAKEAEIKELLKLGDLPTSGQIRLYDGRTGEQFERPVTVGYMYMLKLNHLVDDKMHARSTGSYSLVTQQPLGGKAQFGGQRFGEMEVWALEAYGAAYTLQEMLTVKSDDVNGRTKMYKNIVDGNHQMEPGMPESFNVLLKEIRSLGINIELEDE
Chain of RNAP-promoter open complex (RNAP holoenzyme, lacUV5-12 DNA fragment) (P0A800 whole entry, further chain, the tested form may be a part): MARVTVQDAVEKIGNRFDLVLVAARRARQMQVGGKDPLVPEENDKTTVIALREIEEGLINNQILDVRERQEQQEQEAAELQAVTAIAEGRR
Chain of RNAP-promoter open complex (RNAP holoenzyme, lacUV5-12 DNA fragment) (P00579 whole entry, further chain, the tested form may be a part): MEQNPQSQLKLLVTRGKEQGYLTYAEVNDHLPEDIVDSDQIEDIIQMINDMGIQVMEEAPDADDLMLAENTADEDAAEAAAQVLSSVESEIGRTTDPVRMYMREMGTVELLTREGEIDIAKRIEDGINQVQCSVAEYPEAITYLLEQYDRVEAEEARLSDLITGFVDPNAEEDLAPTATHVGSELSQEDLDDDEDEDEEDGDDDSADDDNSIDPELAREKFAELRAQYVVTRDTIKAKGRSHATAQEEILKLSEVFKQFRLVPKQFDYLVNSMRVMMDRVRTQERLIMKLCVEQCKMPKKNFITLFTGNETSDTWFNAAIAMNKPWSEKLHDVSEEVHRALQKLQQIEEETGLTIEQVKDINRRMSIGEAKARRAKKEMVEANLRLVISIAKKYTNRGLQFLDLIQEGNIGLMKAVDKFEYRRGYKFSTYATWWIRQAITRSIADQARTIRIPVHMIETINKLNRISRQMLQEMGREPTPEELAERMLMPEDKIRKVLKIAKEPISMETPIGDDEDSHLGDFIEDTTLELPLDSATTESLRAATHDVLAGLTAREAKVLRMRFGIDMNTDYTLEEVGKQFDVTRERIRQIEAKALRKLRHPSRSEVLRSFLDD
Chain of RNAP-promoter open complex (RNAP holoenzyme, lacUV5-12 DNA fragment) (P0A8T7 whole entry, the tested form may be a part): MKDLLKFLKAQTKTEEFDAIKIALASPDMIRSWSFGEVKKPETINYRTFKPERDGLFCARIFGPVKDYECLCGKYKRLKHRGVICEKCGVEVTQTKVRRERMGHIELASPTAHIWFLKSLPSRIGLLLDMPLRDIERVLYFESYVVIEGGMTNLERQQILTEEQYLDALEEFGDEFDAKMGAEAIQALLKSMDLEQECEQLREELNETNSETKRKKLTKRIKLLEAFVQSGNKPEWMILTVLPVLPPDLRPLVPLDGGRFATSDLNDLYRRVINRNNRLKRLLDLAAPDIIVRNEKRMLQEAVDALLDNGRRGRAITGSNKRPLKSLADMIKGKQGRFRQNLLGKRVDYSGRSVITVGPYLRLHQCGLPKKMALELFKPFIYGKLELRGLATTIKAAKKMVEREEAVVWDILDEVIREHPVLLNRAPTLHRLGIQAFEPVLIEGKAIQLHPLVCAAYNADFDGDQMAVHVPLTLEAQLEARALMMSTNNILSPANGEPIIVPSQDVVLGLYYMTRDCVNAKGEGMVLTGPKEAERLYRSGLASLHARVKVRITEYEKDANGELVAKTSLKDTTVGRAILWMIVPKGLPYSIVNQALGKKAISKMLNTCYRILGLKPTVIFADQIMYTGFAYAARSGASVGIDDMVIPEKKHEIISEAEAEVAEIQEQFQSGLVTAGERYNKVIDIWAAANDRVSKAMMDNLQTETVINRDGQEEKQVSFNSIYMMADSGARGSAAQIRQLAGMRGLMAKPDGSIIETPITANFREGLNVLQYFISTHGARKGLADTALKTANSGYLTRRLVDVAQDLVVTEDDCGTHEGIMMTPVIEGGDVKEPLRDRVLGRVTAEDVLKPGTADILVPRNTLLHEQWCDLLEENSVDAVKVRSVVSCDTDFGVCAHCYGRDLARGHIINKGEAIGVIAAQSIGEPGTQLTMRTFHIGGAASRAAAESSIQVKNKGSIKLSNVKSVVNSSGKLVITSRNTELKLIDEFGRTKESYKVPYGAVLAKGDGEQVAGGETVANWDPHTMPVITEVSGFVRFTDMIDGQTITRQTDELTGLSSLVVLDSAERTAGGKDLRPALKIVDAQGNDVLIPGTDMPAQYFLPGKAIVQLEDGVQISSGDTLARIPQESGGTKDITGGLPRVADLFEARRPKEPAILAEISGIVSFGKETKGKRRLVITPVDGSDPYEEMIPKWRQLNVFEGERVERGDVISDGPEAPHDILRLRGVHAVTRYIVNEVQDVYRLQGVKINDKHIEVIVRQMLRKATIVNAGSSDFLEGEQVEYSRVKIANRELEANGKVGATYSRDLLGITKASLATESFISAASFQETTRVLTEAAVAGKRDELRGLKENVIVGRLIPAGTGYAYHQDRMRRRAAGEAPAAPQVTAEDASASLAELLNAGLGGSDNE

## lipiarmycin [Lpm]
[1]; RpoB 1251 Tyr→Phe
  MIC (mg/ml) (wild-type = 1): 10 fold relative to wild-type
[1]; RpoB 1256 Gln→Glu
  MIC (mg/ml) (wild-type = 1): 10 fold relative to wild-type
[1]; RpoB 1256 Gln→Leu
  MIC (mg/ml) (wild-type = 1): 5 fold relative to wild-type
[1]; RpoB 1302 Thr→Pro
  MIC (mg/ml) (wild-type = 1): 5 fold relative to wild-type
[1]; RpoB 1318 Gly→Ser
  MIC (mg/ml) (wild-type = 1): 5 fold relative to wild-type
[1]; RpoB 1319 Met→Arg
  MIC (mg/ml) (wild-type = 1): 10 fold relative to wild-type
[1]; RpoB 1319 Met→Lys
  MIC (mg/ml) (wild-type = 1): 5 fold relative to wild-type
[1]; RpoB 1321 Glu→Val
  MIC (mg/ml) (wild-type = 1): 5 fold relative to wild-type
[1]; RpoB 1325 Val→Ala
  MIC (mg/ml) (wild-type = 1): 10 fold relative to wild-type
[1]; RpoB 1325 Val→Leu
  MIC (mg/ml) (wild-type = 1): 5 fold relative to wild-type
[1]; RpoC 248 Asp→Tyr
  MIC (mg/ml) (wild-type = 1): 5 fold relative to wild-type
[1]; RpoC 249 Leu→Arg
  MIC (mg/ml) (wild-type = 1): 5 fold relative to wild-type
[1]; RpoC 337 Arg→Hys
  MIC (mg/ml) (wild-type = 1): 5 fold relative to wild-type
[1]; RpoC 337 Arg→Ser
  MIC (mg/ml) (wild-type = 1): 5 fold relative to wild-type
[1]; wild-type E. coli
  MIC (mg/ml) (wild-type = 1): (wild-type = 1) mg/ml
[2]
  formation of the RNAP-promoter open complex: inhibits formation of the RNAP-promoter open complex
[3]
  inhibition of bacterial RNAP: inhibits bacterial RNAP
[4]
  antibacterial effectiveness: effective against both Gram-positive bacteria and Gram-negative bacteria
